The record followed here is patent US20100056565A1, “Heterocyclic Derivatives as M3 Muscarinic Receptors” (priority 2007, published 2010).

For orientation: Ki means a dissociation constant, usually derived from enzyme kinetics or from competition with a known ligand.

The structures appear in SMILES notation. Structures can show the parent of a compound that is named as a salt.

The target of this experiment is T1, Recombinant human M3 receptor (Homo sapiens, UniProt P20309).
T1 construct: expressed in transfected cells; host or cells: CHO-K1 cells (membranes)
T1 sequence (P20309 whole entry): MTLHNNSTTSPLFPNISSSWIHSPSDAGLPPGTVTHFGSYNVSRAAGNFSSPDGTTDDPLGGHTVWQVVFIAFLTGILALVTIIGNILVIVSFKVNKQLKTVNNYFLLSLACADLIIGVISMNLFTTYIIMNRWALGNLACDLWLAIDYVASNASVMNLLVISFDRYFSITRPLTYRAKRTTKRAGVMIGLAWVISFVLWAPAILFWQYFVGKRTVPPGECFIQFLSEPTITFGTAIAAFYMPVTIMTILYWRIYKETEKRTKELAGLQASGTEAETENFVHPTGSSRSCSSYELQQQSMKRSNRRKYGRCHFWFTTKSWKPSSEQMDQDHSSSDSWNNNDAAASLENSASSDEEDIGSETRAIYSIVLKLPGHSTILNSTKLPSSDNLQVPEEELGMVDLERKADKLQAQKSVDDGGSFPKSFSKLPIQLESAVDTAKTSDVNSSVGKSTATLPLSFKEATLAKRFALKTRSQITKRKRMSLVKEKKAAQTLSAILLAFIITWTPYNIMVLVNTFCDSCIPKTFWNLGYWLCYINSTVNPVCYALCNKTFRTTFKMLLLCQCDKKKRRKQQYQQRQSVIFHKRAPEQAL
Kind of experiment: biochemical. It is filed as binding. The following applies: SPA format; read-out: M3 Ki (SPA format). The procedure:
Recombinant human M3 receptor was expressed in CHO-K1 cells. Cell membranes were prepared and binding of [3H]-N-methyl scopolamine ([3H]-NMS) and compounds was assessed by a scintillation proximity assay (SPA). The incubation time was 16 hours at room temperature in the presence of 1% (v/v) DMSO. The assay was performed in white 96 well clear-bottomed NBS plates (Corning). Prior to the assay, the CHO cell membranes containing M3 receptor were coated onto SPA WGA (Wheat germ agglutinin) beads (GE Healthcare). Non specific binding was determined in the presence of 1 μM Atropine.
Radioactivity was measured on a Microbeta scintillation counter (PerkinElmer) using a 3H protocol with a 2 minutes per well read time. […] Concentration dependent inhibition of [3H]-NMS binding by compounds was expressed as pIC50.
As for `N#Cc1ccc(CO[C@H]2C[N+]3(Cc4cnc([C@](O)(c5ccccc5)C5CCCCC5)o4)CCC2CC3)cc1` [Example 21, (R)-3-(4-cyano-benzyloxy)-1-[2-((R)-cyclohexyl-hydroxy-phenyl-methyl)-oxazol-5-ylmethyl]-1-azonia-bicyclo[2.2.2]octane; formate], the inhibition constant (Ki) is below 5 nM.

For the molecule `OC(c1ccccc1)(c1noc(C[N+]23CCC(CC2)[C@@H](OCc2ccc(F)cc2)C3)n1)C1CCCCC1` (single isomer, unassigned) [Example 130], the Ki was below 5 nM.

For `O[C@](c1ccccc1)(c1ncc(C[N+]23CCC(CC2)[C@@H](OCc2ccsc2)C3)o1)C1CCCCC1` [Example 46, (R)-1-[2-((A)-Cyclohexyl-hydroxy-phenyl-methyl)-oxazol-5-ylmethyl]-3-(thiophen-3-ylmethoxy)-1-azonia-bicyclo[2.2.2]octane; bromide], the Ki was below 5 nM.

Regarding `OC(c1ccccc1)(c1ccccc1)c1noc(C[N+]23CCC(CC2)[C@H](COc2ccccc2)C3)n1` [Example 93, (S)-1-[3-(Hydroxy-diphenyl-methyl)-[1,2,4]oxadiazol-5-ylmethyl]-3-phenoxymethyl-1-azonia-bicyclo[2.2.2]octane; chloride], the inhibition constant Ki is below 5 nM.

Take `O[C@](c1ccccc1)(c1ncc(C[N+]23CCC(CC2)[C@@H](OCCC2CCCCC2)C3)o1)C1CCCCC1` [Example 53, (R)-3-(2-cyclohexyl-ethoxy)-1-[2-((R)-cyclohexyl-hydroxy-phenyl-methyl)-oxazol-5-ylmethyl]-1-azonia-bicyclo[2.2.2]octane; formate]: the Ki is below 5 nM.

In the case of `O[C@](c1ccccc1)(c1nnc(C[N+]23CCC(CC2)[C@@H](Oc2cccc(F)c2)C3)o1)C1CCCCC1` [Example 134, (R)-1-[5-((R)—Cyclohexyl-hydroxy-phenyl-methyl)-[1,3,4]oxadiazol-2-ylmethyl]-3-(3-fluoro-phenoxy)-1-azonia-bicyclo[2.2.2]octane; bromide], the Ki is below 5 nM.

As to `OC(c1ccccc1)(c1ccccc1)c1noc(C[N+]23CCC(CC2)[C@@H](Oc2cccs2)C3)n1` [Example 116, (R)-1-[3-(Hydroxy-diphenyl-methyl)-[1,2,4]oxadiazol-5-ylmethyl]-3-(thiophen-2-yloxy)-1-azonia-bicyclo[2.2.2]octane; chloride], the Ki was below 5 nM.

For the molecule `O[C@](c1ccccc1)(c1ncc(C[N+]23CCC(CC2)C(Sc2ccccc2)C3)o1)C1CCCCC1` (stereo partly drawn) [Example 69, 1-[2-(R)-cyclohexyl-hydroxy-phenyl-methyl)-oxazol-5-ylmethyl]-3-phenylsulfanyl-1-azonia-bicyclo[2.2.2]octane; formate], the inhibition constant (Ki) was below 5 nM.

`N#Cc1cccc(O[C@H]2C[N+]3(Cc4cnc(C(O)(c5ccccc5)c5ccccc5)o4)CCC2CC3)c1` [Example 80, (R)-3-(3-cyano-phenoxy)-1-[2-(hydroxy-diphenyl-methyl)-oxazol-5-ylmethyl]-1-azonia-bicyclo[2.2.2]octane; bromide]: the Ki was below 5 nM.

As to `Cc1ccc(O[C@H]2C[N+]3(Cc4cnc(C(O)(c5ccccc5)c5ccccc5)o4)CCC2CC3)cc1` [Example 58, (R)-1-[2-(Hydroxy-diphenyl-methyl)-oxazol-5-ylmethyl]-3-p-tolyloxy-1-azonia-bicyclo[2.2.2]octane; bromide], the inhibition constant (Ki) is below 5 nM.

In the case of `OC(c1ccccc1)(c1ccccc1)c1ncc(C[N+]23CCC(CC2)[C@@H](Oc2ccc(Cl)cc2)C3)o1` [Example 63, (R)-3-(4-Chloro-phenoxy)-1-[2-(hydroxy-diphenyl-methyl)-oxazol-5-ylmethyl]-1-azonia-bicyclo[2.2.2]octane; bromide], the inhibition constant Ki was below 5 nM.

Turning to `O[C@](c1ccccc1)(c1ncc(C[N+]23CCC(CC2)[C@@H](CSc2cccc(F)c2)C3)o1)C1CCCCC1` [Example 108, (R)-1-[2-((R)—Cyclohexyl-hydroxy-phenyl-methyl)-oxazol-5-ylmethyl]-3-(3-fluoro-phenylsulfanylmethyl)-1-azonia-bicyclo[2.2.2]octane; bromide], the inhibition constant (Ki) is below 5 nM.

With `OC(c1ccccc1)(c1cc(C[N+]23CCC(CC2)[C@@H](SCc2ccccc2)C3)on1)C1CCCCC1` (single isomer, unassigned) [Example 126], the inhibitory constant (Ki) is below 5 nM.

For the molecule `C/C=C/CO[C@H]1C[N+]2(Cc3cnc([C@](O)(c4ccccc4)C4CCCCC4)o3)CCC1CC2` [Example 113, (R)-3-[((E)-But-2-enyl)oxy]-1-[2-((R)-cyclohexyl-hydroxy-phenyl-methyl)-oxazol-5-ylmethyl]-1-azonia-bicyclo[2.2.2]octane; bromide], the Ki is below 5 nM.

In the case of `OC(c1ccccc1)(c1ccccc1)c1ncc(C[N+]23CCC(CC2)[C@@H](Oc2cccc(Cl)c2)C3)o1` [Example 62, (R)-3-(3-Chloro-phenoxy)-1-[2-(hydroxy-diphenyl-methyl)-oxazol-5-ylmethyl]-1-azonia-bicyclo[2.2.2]octane; bromide], the Ki is below 5 nM.

Consider `OC(c1ccccc1)(c1noc(C[N+]23CCC(CC2)[C@@H](Sc2ccccc2)C3)n1)C1CCCCC1` (single isomer, unassigned) [Example 131], for which the inhibitory constant (Ki) was below 5 nM.

For `O[C@](c1ccccc1)(c1ncc(C[N+]23CCC(COc4ccccc4)(CC2)CC3)o1)C1CCCCC1` [Example 55, 1-[2 ((R)—Cyclohexyl-hydroxy-phenyl-methyl)-oxazol-5-ylmethyl]-4-phenoxymethyl-1-azonia-bicyclo[2.2.2]octane; bromide], the Ki is below 5 nM.

For the molecule `O[C@](c1ccccc1)(c1ncc(C[N+]23CCC(CC2)C(CCc2ccccc2)C3)o1)C1CCCCC1` (stereo partly drawn) [Example 36, 1-[2-((R)—Cyclohexyl-hydroxy-phenyl-methyl)-oxazol-5-ylmethyl]-3-phenethyl-1-azonia-bicyclo[2.2.2]octane; bromide], the inhibition constant Ki is below 5 nM.

For `O[C@](c1ccccc1)(c1ncc(C[N+]23CCC(CC2)C(COc2cccc(F)c2)C3)o1)C1CCCCC1` (single isomer, unassigned) [Example 85], the Ki was below 5 nM.

Regarding `OC(c1ccccc1)(c1noc(C[N+]23CCC(CC2)[C@@H](CSc2ccccc2)C3)n1)C1CCCCC1` (single isomer, unassigned) [Example 132], the inhibition constant (Ki) was below 5 nM.

Regarding `N#Cc1cccc(O[C@H]2C[N+]3(Cc4nc(C(O)(c5ccccc5)c5ccccc5)no4)CCC2CC3)c1` [Example 139, (R)-3-(3-Cyano-phenoxy)-1-[3-(hydroxy-diphenyl-methyl)-[1,2,4]oxadiazol-5-ylmethyl]-1-azonia-bicyclo[2.2.2]octane; chloride], the inhibition constant (Ki) was below 5 nM.

With `OC(c1ccccc1)(c1ccccc1)c1ncc(C[N+]23CCC(CC2)[C@@H](Sc2ccc(F)cc2)C3)o1` [Example 97, (R)-3-(4-Fluoro-phenylsulfanyl)-1-[2-(hydroxy-diphenyl-methyl)-oxazol-5-ylmethyl]-1-azonia-bicyclo[2.2.2]octane; bromide], the Ki is below 5 nM.

Regarding `O[C@](c1ccccc1)(c1ncc(C[N+]23CCC(CC2)C(COc2ccc(F)cc2)C3)o1)C1CCCCC1` (single isomer, unassigned) [Example 87], the Ki was below 5 nM.

In the case of `O[C@](c1ccccc1)(c1ncc(C[N+]23CCC(CC2)[C@H](CSc2ccc(Cl)cc2)C3)o1)C1CCCCC1` [Example 110, (S)-3-(4-Chloro-phenylsulfanylmethyl)-1-[2-((R)cyclohexyl-hydroxy-phenyl-methyl)-oxazol-5-ylmethyl]-1-azonia-bicyclo[2.2.2]octane; bromide], the inhibitory constant (Ki) was below 5 nM.

In the case of `OC(c1ccccc1)(c1ccccc1)c1ncc(C[N+]23CCC(CC2)C(COc2ccc(F)cc2)C3)o1` (single isomer, unassigned) [Example 86, 3-(4-Fluoro-phenoxymethyl)-1-[2-(hydroxy-diphenyl-methyl)-oxazol-5-ylmethyl]-1-azonia-bicyclo[2.2.2]octane; bromide], the Ki was 5 to 20 nM.

Turning to `OC(c1ccccc1)(c1ccccc1)c1noc(C[N+]23CCC(CC2)[C@@H](Oc2cccc(Cl)c2)C3)n1` [Example 117, (R)-3-(3-Chloro-phenoxy)-1-[3-(hydroxy-diphenyl-methyl)-[1,2,4]oxadiazol-5-ylmethyl]-1-azonia-bicyclo[2.2.2]octane; chloride], the inhibition constant Ki was below 5 nM.

Turning to `OC(c1ccccc1)(c1ccccc1)c1ncc(C[N+]23CCC(CC2)[C@@H](Oc2cc(Cl)cc(Cl)c2)C3)o1` [Example 74, (R)-3-(3,5-dichloro-phenoxy)-1-[2-(hydroxy-diphenyl-methyl)-oxazol-5-ylmethyl]-1-azonia-bicyclo[2.2.2]octane; bromide], the inhibition constant (Ki) was above 20 nM.

With `OC(c1ccccc1)(c1ccccc1)c1ncc(C[N+]23CCC(CC2)[C@@H](OCc2ccccc2)C3)o1` [Example 27, (R)-3-Benzyloxy-1-[2-(hydroxy-diphenyl-methyl)-oxazol-5-ylmethyl]-1-azonia-bicyclo[2.2.2]octane; bromide], the Ki is below 5 nM.

`OC(c1ccccc1)(c1ccccc1)c1ncc(C[N+]23CCC(CC2)[C@@H](Oc2ccsc2)C3)o1` [Example 114, (R)-1-[2-(Hydroxy-diphenyl-methyl)-oxazol-5-ylmethyl]-3-(thiophen-3-yloxy)-1-azonia-bicyclo[2.2.2]octane; bromide]: the Ki is 5 to 20 nM.

As to `O[C@](c1ccccc1)(c1ncc(C[N+]23CCC(CC2)[C@@H](OCc2ccc(Cl)c(Cl)c2)C3)o1)C1CCCC1` [Example 45, (R)-1-[2-((R)-cyclopentyl-hydroxy-phenyl-methyl)-oxazol-5-ylmethyl]-3-(3,4-dichloro-benzyloxy)-1-azonia-bicyclo[2.2.2]octane; formate], the Ki is below 5 nM.
